What was measured:
Test in all cases: relative viability (nuclei count vs DMSO), 5 days (fraction); higher = more cells survive
[1] = compound: CN1CCN(c2ccc3nc(-c4c(N)c5c(F)cccc5[nH]c4=O)[nH]c3c2)CC1 [Dovitinib] + CS(=O)(=O)CCNCc1ccc(-c2ccc3ncnc(Nc4ccc(OCc5cccc(F)c5)c(Cl)c4)c3c2)o1 [Lapatinib] (partner 2 µM)
Method in brief: (§1)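 Relative viability divides the nuclei count in treated wells by that in vehicle wells. Lung cancer cell lines were seeded in 1536-well plates, dosed by pin tool the next day, and fixed and stained after 5 days in one step with final 0.05% Triton X-100, 1% formaldehyde and 1 ug/ml Hoechst. Dosing was a single drug or a fixed anchor-drug dose plus five library-drug doses (not always all listed) in √10 steps, and values are medians of duplicate plates imaged at 4×.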

[2] = compound: CN1CCN(c2ccc3nc(-c4c(N)c5c(F)cccc5[nH]c4=O)[nH]c3c2)CC1 [Dovitinib] + C[C@]1(O)C[C@@H](c2nc(-c3ccc4ccc(-c5ccccc5)nc4c3)c3c(N)nccn32)C1 [Linsitinib] (partner 1 µM)
Method in brief: as §1

[3] = compound: CN1CCN(c2ccc3nc(-c4c(N)c5c(F)cccc5[nH]c4=O)[nH]c3c2)CC1 [Dovitinib] + COc1cccc2cc(-c3nc([C@H]4CC[C@H](C(=O)O)CC4)n4ncnc(N)c34)[nH]c12 [OSI-027] (partner 0.5 µM)
Method in brief: as §1

[4] = compound: CN1CCN(c2ccc3nc(-c4c(N)c5c(F)cccc5[nH]c4=O)[nH]c3c2)CC1 [Dovitinib] + CCNC(=O)c1noc(-c2cc(C(C)C)c(O)cc2O)c1-c1ccc(CN2CCOCC2)cc1 [Luminespib] (partner 0.01 µM)
Method in brief: as §1

Cell Line | relative viability ([1]; first compound 0.02 µM) | relative viability ([1]; first compound 0.06325 µM) | relative viability ([1]; first compound 0.2 µM) | relative viability ([1]; first compound 0.6325 µM) | relative viability ([1]; first compound 2 µM) | relative viability ([2]; first compound 0.02 µM) | relative viability ([2]; first compound 0.06325 µM) | relative viability ([2]; first compound 0.2 µM) | relative viability ([2]; first compound 0.6325 µM) | relative viability ([2]; first compound 2 µM) | relative viability ([3]; first compound 0.02 µM) | relative viability ([3]; first compound 0.06325 µM) | relative viability ([3]; first compound 0.2 µM) | relative viability ([3]; first compound 0.6325 µM) | relative viability ([3]; first compound 2 µM) | relative viability ([4]; first compound 0.02 µM) | relative viability ([4]; first compound 0.06325 µM) | relative viability ([4]; first compound 0.2 µM) | relative viability ([4]; first compound 0.6325 µM) | relative viability ([4]; first compound 2 µM)
PC-14 | 0.296 | 0.336 | 0.308 | 0.309 | 0.279 | 1.03 | 0.954 | 0.969 | 0.996 | 0.928 | 0.827 | 0.804 | 1.02 | 0.751 | 0.933 | 0.147 | 0.158 | 0.15 | 0.17 | 0.16
HOP-62 | 0.876 | 0.999 | 1 | 1.24 | 1.1 | 0.784 | 0.852 | 1.1 | 0.921 | 1.03 | 0.794 | 0.79 | 0.866 | 0.925 | 0.855 | 0.888 | 1.03 | 0.868 | 0.89 | 0.931
NCI-H358 | 0.507 | 0.417 | 0.446 | 0.492 | 0.438 | 0.743 | 0.656 | 0.826 | 0.66 | 0.854 | 0.703 | 0.769 | 0.905 | 0.819 | 0.739 | 0.31 | 0.306 | 0.428 | 0.813 | 0.306
SK-MES-1 | 0.438 | 0.47 | 0.482 | 0.524 | 0.437 | 1.09 | 1.02 | 1.09 | 1.15 | 1.07 | 0.56 | 0.591 | 0.605 | 0.601 | 0.612 | 0.653 | 0.949 | 0.785 | 0.661 | 0.887
NCI-H1666 | 0.657 | 0.627 | 0.667 | 0.596 | 0.69 | 0.793 | 0.687 | 0.859 | 0.764 | 0.896 | 0.931 | 0.882 | 0.838 | 0.875 | 0.909 | 1.02 | 0.991 | 1.07 | 0.997 | 0.972
NCI-H1355 | 0.977 | 0.945 | 0.984 | 1.02 | 1.13 | 0.821 | 0.886 | 0.856 | 0.801 | 0.812 | 0.443 | 0.386 | 0.392 | 0.48 | 0.388 | 0.716 | 0.781 | 0.829 | 0.827 | 0.68
HCC-827 | 0.191 | 0.171 | 0.216 | 0.202 | 0.191 | 0.895 | 0.97 | 0.959 | 0.928 | 0.898 | 0.797 | 0.791 | 0.818 | 0.833 | 0.759 | 0.854 | 0.676 | 0.596 | 0.509 | 0.717
HARA | 0.914 | 0.716 | 0.564 | 0.805 | 0.602 | 1 | 0.943 | 0.924 | 0.968 | 0.859 | 0.628 | 0.438 | 0.456 | 0.538 | 0.474 | 0.708 | 0.682 | 0.595 | 0.603 | 0.763
NCI-H322M | 0.5 | 0.53 | 0.587 | 0.657 | 0.57 | 0.945 | 0.853 | 0.973 | 0.943 | 0.892 | 0.518 | 0.526 | 0.557 | 0.502 | 0.608 | 0.835 | 0.883 | 0.831 | 0.803 | 0.792
NCI-H2347 | 0.588 | 0.882 | 1 | 0.924 | 0.967 | 0.997 | 0.892 | 0.953 | 0.978 | 0.969 | 0.568 | 0.265 | 0.471 | 0.545 | 0.529 | 0.426 | 0.442 | 0.661 | 0.357 | 0.255
NCI-H1975 | 0.899 | 0.979 | 0.917 | 0.89 | 0.907 | 0.903 | 0.954 | 0.915 | 0.934 | 1.09 | 0.749 | 0.735 | 0.732 | 0.664 | 0.666 | 0.991 | 0.19 | 0.422 | 0.146 | 0.217
UMC-11 | 1.04 | 1.01 | 0.96 | 0.963 | 0.724 | 0.983 | 1.1 | 0.986 | 1.07 | 1.07 | 0.467 | 0.39 | 0.523 | 0.47 | 0.497 | 0.964 | 1.03 | 0.979 | 1 | 0.996
ABC-1 | 1.15 | 1.28 | 1.02 | 1.18 | 0.969 | 0.848 | 0.865 | 0.842 | 1.02 | 0.618 | 0.445 | 0.505 | 0.48 | 0.448 | 0.51 | – | 0.522 | 0.326 | 0.783 | 0.659
A-427 | 1.02 | 0.952 | 1.01 | 0.975 | 1.05 | 1.05 | 1.07 | 1.14 | 1.09 | 1.08 | 0.524 | 0.432 | 0.455 | 0.452 | 0.399 | 0.843 | 1.02 | 1.14 | 0.897 | 0.747
